Target: T1, hVR1 (Homo sapiens, UniProt Q8NER1)
T1 construct: expressed in transfected cells; host or cells: HEK293
Experiment: Human VR1 (hVR1) Functional Assay (FLIPR intracellular calcium, capsaicin challenge)
Assay type: cell-based
Settings: capsaicin 0.030 μM, HEK293 cells expressing hVR1; for inhibition at 1 µM: test concentration 1 μM

T1 sequence (Q8NER1 whole entry): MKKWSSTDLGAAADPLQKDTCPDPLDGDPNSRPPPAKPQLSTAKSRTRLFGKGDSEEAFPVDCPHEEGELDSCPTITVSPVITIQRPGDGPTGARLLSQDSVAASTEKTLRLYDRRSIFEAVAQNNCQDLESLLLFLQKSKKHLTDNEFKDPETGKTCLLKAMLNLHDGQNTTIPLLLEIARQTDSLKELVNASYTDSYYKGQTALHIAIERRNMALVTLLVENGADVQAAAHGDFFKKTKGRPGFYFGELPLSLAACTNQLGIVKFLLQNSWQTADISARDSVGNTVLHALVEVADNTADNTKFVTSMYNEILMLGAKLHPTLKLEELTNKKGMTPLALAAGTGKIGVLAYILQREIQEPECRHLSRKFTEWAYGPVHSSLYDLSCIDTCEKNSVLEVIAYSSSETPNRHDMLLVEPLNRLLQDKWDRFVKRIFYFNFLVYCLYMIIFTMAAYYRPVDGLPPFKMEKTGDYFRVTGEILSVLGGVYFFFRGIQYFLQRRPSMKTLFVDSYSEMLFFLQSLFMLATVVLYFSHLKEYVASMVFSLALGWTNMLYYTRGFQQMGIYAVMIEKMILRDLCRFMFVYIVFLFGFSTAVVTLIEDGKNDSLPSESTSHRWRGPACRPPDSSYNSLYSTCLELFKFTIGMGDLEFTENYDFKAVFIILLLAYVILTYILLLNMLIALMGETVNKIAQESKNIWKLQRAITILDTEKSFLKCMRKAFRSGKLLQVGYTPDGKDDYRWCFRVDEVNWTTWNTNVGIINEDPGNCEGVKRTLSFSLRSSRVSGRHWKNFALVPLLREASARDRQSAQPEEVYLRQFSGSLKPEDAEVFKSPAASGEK

Structure (SMILES) | inhibition at 1 µM [%] | IC50 [nM]
CC(C)(C)NS(=O)(=O)c1ccccc1-c1ccc2[nH]c(/C=C/c3ccc(C(F)(F)F)cc3)nc2c1 [Cpd 309, (E)-N-tert-butyl-2-{2-[2-(4-trifluoromethyl-phenyl)-vinyl]-1H-benzimidazol-5-yl}-benzenesulfonamide] | 73 | 
Oc1ccccc1-c1cc2nc(/C=C/c3ccc(C(F)(F)F)cc3)[nH]c2cc1F [Cpd 59, (E)-2-{6-fluoro-2-[2-(4-trifluoromethyl-phenyl)-vinyl]-1H-benzimidazol-5-yl}-phenol] | 80 | 440
NS(=O)(=O)c1ccccc1-c1ccc2[nH]c(CCc3cc(C(F)(F)F)ccc3C(F)(F)F)nc2c1 [Cpd 388, 2-{2-[2-(2,5-bis-trifluoromethyl-phenyl)-ethyl]-1H-benzimidazol-5-yl}-benzenesulfonamide] | 99 | 54
FC(F)(F)Oc1ccccc1-c1ccc2[nH]c(/C=C/c3ccc(C(F)(F)F)cc3)nc2c1 [Cpd 488, (E)-5-(2-trifluoromethoxy-phenyl)-2-[2-(4-trifluoromethyl-phenyl)-vinyl]-1H-benzimidazole] | 4 | 
NCc1ccccc1-c1ccc2[nH]c(CCc3ccc(C(F)(F)F)cc3)nc2c1 [Cpd 486, 2-{2-[2-(4-trifluoromethyl-phenyl)-ethyl]-1H-benzimidazol-5-yl}-benzylamine] |  | > 500
NS(=O)(=O)c1ccccc1-c1ccc2[nH]c(CCc3cccc(C(F)(F)F)c3)nc2c1 [Cpd 175, 2-{2-[2-(3-trifluoromethyl-phenyl)-ethyl]-1H-benzimidazol-5-yl}-benzenesulfonamide] | 100 | 16
CC(C)(O)c1ccccc1-c1ccc2[nH]c([C@H]3C[C@@H]3c3ccc(C(F)(F)F)cc3)nc2c1 [Cpd 503, 2-(2-{2-[(1S,2S)-2-(4-trifluoromethyl-phenyl)-cyclopropyl]-1H-benzimidazol-5-yl}-phenyl)-propan-2-ol] | 93 | 10
COC(=O)Nc1ccccc1-c1ccc2[nH]c(/C=C/c3ccc(C(F)(F)F)cc3)nc2c1 [Cpd 462, (E)-(2-{2-[2-(4-trifluoromethyl-phenyl)-vinyl]-1H-benzimidazol-5-yl}-phenyl)-carbamic acid methyl ester] | 98 | 97
OCc1ccccc1-c1cc2nc(/C=C/c3ccc(C(F)(F)F)cc3)[nH]c2cc1C(F)(F)F [Cpd 58, (E)-(2-{6-trifluoromethyl-2-[2-(4-trifluoromethyl-phenyl)-vinyl]-1H-benzimidazol-5-yl}-phenyl)-methanol] | 87 | 95
CS(=O)(=O)Nc1ccccc1-c1ccc2[nH]c(/C=C/c3ccc(F)c(F)c3)nc2c1 [Cpd 28, (E)-N-(2-{2-[2-(3,4-difluoro-phenyl)-vinyl]-1H-benzimidazol-5-yl}-phenyl)-methanesulfonamide] | 96 | 250
CC(O)c1ccccc1-c1ccc2[nH]c(/C=C/c3ccc(C(F)(F)F)cc3)nc2c1 (stereo not drawn) [Cpd 16, (E)-1-(2-{2-[2-(4-trifluoromethyl-phenyl)-vinyl]-1H-benzimidazol-5-yl}-phenyl)-ethanol] | 100 | 45
CC(C)(C)OC(=O)Nc1ccccc1-c1cc2nc(/C=C/c3ccc(C(C)(C)C)cc3)[nH]c2cc1C(F)(F)F [Cpd 54, (E)-(2-{2-[2-(4-tert-butyl-phenyl)-vinyl]-6-trifluoromethyl-1H-benzimidazol-5-yl}-phenyl)-carbamic acid tert-butyl ester] | 20 | 
NS(=O)(=O)c1ccc(F)cc1-c1ccc2[nH]c(/C=C/c3ccc(C(F)(F)F)cc3)nc2c1 [Cpd 441, (E)-4-fluoro-2-{2-[2-(4-trifluoromethyl-phenyl)-vinyl]-1H-benzimidazol-5-yl}-benzenesulfonamide] | 40 | 
CC(C)(O)c1ccccc1-c1ccc2[nH]c(C3CC3c3cccc(C(F)(F)F)c3)nc2c1 (stereo not drawn) [Cpd 234, 2-(2-{2-[2-(3-trifluoromethyl-phenyl)-cyclopropyl]-1H-benzimidazol-5-yl}-phenyl)-propan-2-ol] | 7 | 
NS(=O)(=O)c1ccccc1-c1ccc2[nH]c(C#Cc3cccc(C(F)(F)F)c3)nc2c1 [Cpd 295, 2-[2-(3-trifluoromethyl-phenylethynyl)-1H-benzimidazol-5-yl]-benzenesulfonamide] | 100 | 16
CS(=O)(=O)Nc1ccccc1-c1ccc2[nH]c(/C=C/c3ccc(Br)cc3)nc2c1 [Cpd 406, (E)-N-(2-{2-[2-(4-bromo-phenyl)-vinyl]-1H-benzimidazol-5-yl}-phenyl)-methanesulfonamide] | 97 | 170
CC(C)(C)OC(=O)Nc1ccccc1-c1ccc2[nH]c(/C=C/c3ccc(C(F)(F)F)cc3)nc2c1 [Cpd 479, (E)-(2-{2-[2-(4-trifluoromethyl-phenyl)-vinyl]-1H-benzimidazol-5-yl}-phenyl)-carbamic acid tert-butyl ester] | 12 | 
Oc1ccccc1-c1ccc2[nH]c(C3CC3c3ccc(C(F)(F)F)cc3)nc2c1 (stereo not drawn) [Cpd 472, 2-{2-[2-(4-trifluoromethyl-phenyl)-cyclopropyl]-1H-benzimidazol-5-yl}-phenol] |  | > 500
CS(=O)(=O)Nc1ccccc1-c1ccc2[nH]c(C3CC3c3ccc(C(F)(F)F)cc3)nc2c1 (stereo not drawn) [Cpd 467, N-(2-{2-[2-(4-trifluoromethyl-phenyl)-cyclopropyl]-1H-benzimidazol-5-yl}-phenyl)-methanesulfonamide] | 86 | 182
CS(=O)(=O)Nc1ccccc1-c1ccc2[nH]c(/C=C/c3ccc(OC(F)F)cc3)nc2c1 [Cpd 410, (E)-N-(2-{2-[2-(4-difluoromethoxy-phenyl)-vinyl]-1H-benzimidazol-5-yl}-phenyl)-methanesulfonamide] | 91 | 156
O=Cc1ccccc1-c1ccc2[nH]c(/C=C/c3ccc(C(F)(F)F)cc3)nc2c1 [Cpd 484, (E)-2-{2-[2-(4-trifluoromethyl-phenyl)-vinyl]-1H-benzimidazol-5-yl}-benzaldehyde] |  | > 500
CC(=O)Nc1ccccc1-c1ccc2[nH]c(CCc3ccc(C(F)(F)F)cc3)nc2c1 [Cpd 457, N-(2-{2-[2-(4-trifluoromethyl-phenyl)-ethyl]-1H-benzimidazol-5-yl}-phenyl)-acetamide] | 22 | 
CC(C)(C)c1ccc(/C=C/c2nc3cc(-c4ccccc4CO)ccc3[nH]2)cc1 [Cpd 12, (E)-(2-{2-[2-(4-tert-butyl-phenyl)-vinyl]-1H-benzimidazol-5-yl}-phenyl)-methanol] | 100 | 10

More lines, now with the values ahead:

inhibition at 1 µM [%] | IC50 [nM] | Structure (SMILES)
99 | 35 | NS(=O)(=O)c1ccccc1-c1ccc2[nH]c(/C=C/c3ccccc3Br)nc2c1 [Cpd 366, (E)-2-{2-[2-(2-bromo-phenyl)-vinyl]-1H-benzimidazol-5-yl}-benzenesulfonamide]
99 | 8 | NS(=O)(=O)c1ccccc1-c1ccc2[nH]c(/C=C/c3ccc(F)c(C(F)(F)F)c3)nc2c1 [Cpd 369, (E)-2-{2-[2-(4-fluoro-3-trifluoromethyl-phenyl)-vinyl]-1H-benzimidazol-5-yl}-benzenesulfonamide]
100 | 13 | CNS(=O)(=O)c1ccccc1-c1ccc2[nH]c(/C=C/c3ccc(C(F)(F)F)cc3F)nc2c1 [Cpd 320, (E)-2-{2-[2-(2-fluoro-4-trifluoromethyl-phenyl)-vinyl]-1H-benzimidazol-5-yl}-N-methyl-benzenesulfonamide]
99 | 17 | NS(=O)(=O)c1ccccc1-c1ccc2[nH]c(/C=C/c3ccccc3Cl)nc2c1 [Cpd 365, (E)-2-{2-[2-(2-chloro-phenyl)-vinyl]-1H-benzimidazol-5-yl}-benzenesulfonamide]
96 | 4 | CC(C)c1ccc(CCc2nc3cc(-c4ccccc4S(N)(=O)=O)ccc3[nH]2)cc1 [Cpd 442, 2-{2-[2-(4-isopropyl-phenyl)-ethyl]-1H-benzimidazol-5-yl}-benzenesulfonamide]
99 | 20 | NS(=O)(=O)c1ccccc1-c1ccc2[nH]c(/C=C/c3cc(C(F)(F)F)cc(C(F)(F)F)c3)nc2c1 [Cpd 373, (E)-2-{2-[2-(3,5-bis-trifluoromethyl-phenyl)-vinyl]-1H-benzimidazol-5-yl}-benzenesulfonamide]
98 | 13 | NS(=O)(=O)c1ccccc1-c1ccc2[nH]c(/C=C/c3ccc(F)c(F)c3F)nc2c1 [Cpd 370, (E)-2-{2-[2-(2,3,4-trifluoro-phenyl)-vinyl]-1H-benzimidazol-5-yl}-benzenesulfonamide]
96 | 71 | NS(=O)(=O)c1ccccc1-c1ccc2[nH]c(/C=C/c3c(F)cccc3Cl)nc2c1 [Cpd 438, (E)-2-{2-[2-(2-chloro-6-fluoro-phenyl)-vinyl]-1H-benzimidazol-5-yl}-benzenesulfonamide]
100 | 47 | CNS(=O)(=O)c1ccccc1-c1ccc2[nH]c(/C=C/c3cccc(Cl)c3F)nc2c1 [Cpd 335, (E)-2-{2-[2-(3-chloro-2-fluoro-phenyl)-vinyl]-1H-benzimidazol-5-yl}-N-methyl-benzenesulfonamide]
100 | 18 | CNS(=O)(=O)c1ccccc1-c1ccc2[nH]c(/C=C/c3ccc(C)cc3)nc2c1 [Cpd 314, (E)-N-methyl-2-[2-(2-p-tolyl-vinyl)-1H-benzimidazol-5-yl]-benzenesulfonamide]
97 | 71 | NS(=O)(=O)c1ccccc1-c1ccc2[nH]c(/C=C/c3c(F)cccc3F)nc2c1 [Cpd 372, (E)-2-{2-[2-(2,6-difluoro-phenyl)-vinyl]-1H-benzimidazol-5-yl}-benzenesulfonamide]
98 | 13 | NS(=O)(=O)c1ccccc1-c1ccc2[nH]c(/C=C/c3ccc(Cl)c(Cl)c3)nc2c1 [Cpd 427, (E)-2-{2-[2-(3,4-dichloro-phenyl)-vinyl]-1H-benzimidazol-5-yl}-benzenesulfonamide]

Source: patent US7951829B2, “Benzimidazole modulators of VR1” (Janssen Pharmaceutica NV, priority 2006, dated 2011)
